Reference: patent publication US20250304567A1, “PYRROLIDIONE DERIVATIVES AS INHIBITORS OF NF KAPPA B INDUCING KINASE” (priority 2022, published 2025)

What was measured:
[1] = system: p-IKKa levels in L363 (NIK translocated multiple myeloma) cells; assay: Effect of compounds on p-IKKa levels in L363 (NIK translocated multiple myeloma) cells (AlphaLISA SureFire Ultra p-IKKa Ser176/180); assay type: cell-based, human; conditions: Homo sapiens, L-363, p-IKKa levels in L363 cells; average if tested more than once; read-out: Assay 2 IC50
Procedure, shortened: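 Phospho-IKKa (Ser176/180) in lysates quantified by AlphaLISA after 6 h compound exposure, 11-point threefold dilutions, 0.3% DMSO. L363 cells were pre-stimulated overnight and assayed with 250 ng/ml BAFF and 10 μM MG132; % inhibition fitted sigmoidally for IC50, duplicate curves.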

[2] = biological target: Recombinant Human NF-kappaB-Inducing Kinase (NIK/MAP3K14) (Homo sapiens, UniProt Q99558); assay: Inhibition of auto-phosphorylation of recombinant human NIK/MAP3K14 activity (AlphaScreen); assay type: biochemical; conditions: 5 μM ATP, 1 nM NIK, average if tested more than once
Procedure, shortened: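 AlphaScreen detection of phospho-Ser176/180 after 1 nM GST-NIK auto-phosphorylates for 2 h at 25 °C with 5 μM ATP (50 mM Tris pH 7.5, 0.7% DMSO). IC50s come from sigmoidal curves of % inhibition against log dose, using enzyme-free, ATP-free low controls and full-activity high controls.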

Recombinant Human NF-kappaB-Inducing Kinase (NIK/MAP3K14), sequence (Q99558 whole entry): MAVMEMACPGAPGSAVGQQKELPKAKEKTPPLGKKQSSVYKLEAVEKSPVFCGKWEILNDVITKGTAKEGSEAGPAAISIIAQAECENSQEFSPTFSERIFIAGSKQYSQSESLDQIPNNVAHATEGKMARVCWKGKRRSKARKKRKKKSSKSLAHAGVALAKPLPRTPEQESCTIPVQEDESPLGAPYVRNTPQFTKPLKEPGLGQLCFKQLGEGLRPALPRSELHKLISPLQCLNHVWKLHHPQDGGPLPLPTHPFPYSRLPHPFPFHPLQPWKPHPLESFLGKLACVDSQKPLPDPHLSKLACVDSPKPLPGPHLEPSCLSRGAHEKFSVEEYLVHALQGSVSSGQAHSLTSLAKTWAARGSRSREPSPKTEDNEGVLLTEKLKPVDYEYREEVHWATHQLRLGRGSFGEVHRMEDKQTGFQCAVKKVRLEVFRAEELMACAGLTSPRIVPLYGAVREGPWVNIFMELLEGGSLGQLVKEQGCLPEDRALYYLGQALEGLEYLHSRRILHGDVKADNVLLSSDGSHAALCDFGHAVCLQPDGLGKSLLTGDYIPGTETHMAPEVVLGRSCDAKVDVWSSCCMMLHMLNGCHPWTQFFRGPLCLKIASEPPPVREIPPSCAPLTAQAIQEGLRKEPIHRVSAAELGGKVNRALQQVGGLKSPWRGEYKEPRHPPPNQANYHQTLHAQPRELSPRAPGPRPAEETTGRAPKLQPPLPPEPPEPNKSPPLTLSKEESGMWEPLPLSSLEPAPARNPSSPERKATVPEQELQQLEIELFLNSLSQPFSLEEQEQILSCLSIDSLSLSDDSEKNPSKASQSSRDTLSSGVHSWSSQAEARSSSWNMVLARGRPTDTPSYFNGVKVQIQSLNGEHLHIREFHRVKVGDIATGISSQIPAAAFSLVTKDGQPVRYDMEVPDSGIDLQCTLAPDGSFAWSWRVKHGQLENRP

CN1CC[C@@](O)(c2ccnc(-c3ccn(-c4ccnc(Nc5cn(CC(F)F)nc5OC5CC5)n4)n3)c2)C1=O (single isomer, unassigned) [Example 154, (R)-3-(2-(1-(2-((3-cyclopropoxy-1-(2,2-difluoroethyl)-1H-pyrazol-4-yl)amino)pyrimidin-4-yl)-1H-pyrazol-3-yl)pyridin-4-yl)-3-hydroxy-1-methylpyrrolidin-2-one or (S)-3-(2-(1-(2-((3-cyclopropoxy-1-(2,2-difluoroethyl)-1H-pyrazol-4-yl)amino)pyrimidin-4-yl)-1H-pyrazol-3-yl)pyridin-4-yl)-3-hydroxy-1-methylpyrrolidin-2-one]
IC50 [1]: < 100 nM
IC50 [2]: < 100 nM

CN1CC[C@@](O)(c2cccc(-c3nc(-c4ccnc(NC5CCOc6cccnc65)n4)cs3)c2)C1=O (some centres unmarked) [Example 227]
IC50 [1]: > 501 nM
IC50 [2]: < 100 nM

COc1nn(CC(F)(F)F)cc1Nc1nccc(-c2csc(-c3cccc([C@]4(O)CCN(C)C4=O)c3)n2)n1 [Example 101, (R)-3-hydroxy-3-(3-(4-(2-((3-methoxy-1-(2,2,2-trifluoroethyl)-1H-pyrazol-4-yl)amino)pyrimidin-4-yl)thiazol-2-yl)phenyl)-1-methylpyrrolidin-2-one]
IC50 [1]: < 100 nM
IC50 [2]: < 100 nM

CN1CC[C@@](O)(c2cccc(-n3ccc(-c4ccnc(Nc5ccn(C)n5)n4)n3)c2)C1=O [Example 55, (R)-3-hydroxy-1-methyl-3-(3-(3-(2-((1-methyl-1H-pyrazol-3-yl)amino)pyrimidin-4-yl)-1H-pyrazol-1-yl)phenyl)pyrrolidin-2-one]
IC50 [1]: 100 to 500 nM
IC50 [2]: < 100 nM

CN1CC[C@@](O)(c2cccc(-c3nc(-c4ccnc(Nc5cn(C)nc5C(F)(F)F)n4)cs3)c2)C1=O [Example 280, (R)-3-Hydroxy-1-methyl-3-(3-(4-(2-((1-methyl-3-(trifluoromethyl)-1H-pyrazol-4-yl)amino)pyrimidin-4-yl)thiazol-2-yl)phenyl)pyrrolidin-2-one]
IC50 [1]: 100 to 500 nM
IC50 [2]: < 100 nM

CN1CC[C@@](O)(c2cccc(-c3nc(-c4ccnc(NC5COC5)n4)cs3)c2)C1=O [Example 230]
IC50 [1]: 100 to 500 nM
IC50 [2]: < 100 nM

CN1CC[C@@](O)(c2cccc(-c3nc(-c4ccnc(N[C@H]5CCC[C@@H](O)C5)n4)cs3)c2)C1=O [Example 255]
IC50 [1]: > 501 nM
IC50 [2]: 100 to 500 nM

COc1nn(CC(F)F)cc1Nc1nccc(-n2ccc(-c3cncc([C@]4(O)CCN(C)C4=O)c3)n2)n1 (single isomer, unassigned) [Example 150, (R)-3-(5-(1-(2-((1-(2,2-difluoroethyl)-3-methoxy-1H-pyrazol-4-yl)amino)pyrimidin-4-yl)-1H-pyrazol-3-yl)pyridin-3-yl)-3-hydroxy-1-methylpyrrolidin-2-one or (S)-3-(5-(1-(2-((1-(2,2-difluoroethyl)-3-methoxy-1H-pyrazol-4-yl)amino)pyrimidin-4-yl)-1H-pyrazol-3-yl)pyridin-3-yl)-3-hydroxy-1-methylpyrrolidin-2-one]
IC50 [1]: < 100 nM
IC50 [2]: < 100 nM

Cc1cn(CC(F)(F)F)nc1Nc1nccc(-c2csc(-c3cccc([C@]4(O)CCN(C)C4=O)c3)n2)n1 [Example 245]
IC50 [1]: > 501 nM
IC50 [2]: > 501 nM

COCCCNc1nccc(-c2csc(-c3cccc([C@]4(O)CCN(C)C4=O)c3)n2)n1 [Example 242]
IC50 [1]: > 501 nM
IC50 [2]: 100 to 500 nM

C[C@@H](Nc1nccc(-n2ccc(-c3cccc([C@]4(O)CCN(C)C4=O)c3)n2)n1)c1ccnn1C (single isomer, unassigned) [Example 92]
IC50 [1]: < 100 nM
IC50 [2]: < 100 nM

Cc1cc(Nc2nccc(-c3csc(-c4cccc([C@]5(O)CCN(C)C5=O)c4)n3)n2)c(=O)n(C)c1 [Example 14, (R)-3-((4-(2-(3-(3-Hydroxy-1-methyl-2-oxopyrrolidin-3-yl)phenyl)thiazol-4-yl)pyrimidin-2-yl)amino)-1,5-dimethylpyridin-2(1H)-one]
IC50 [1]: 100 to 500 nM
IC50 [2]: < 100 nM

CN1CC[C@@](O)(c2cccc(-c3nc(-c4ccnc(NCCCN5CCOCC5)n4)cs3)c2)C1=O [Example 246]
IC50 [1]: > 501 nM
IC50 [2]: > 501 nM

Cc1nc(Nc2nccc(-c3csc(-c4cccc([C@]5(O)CCN(C)C5=O)c4)n3)n2)sc1C [Example 233]
IC50 [1]: 100 to 500 nM
IC50 [2]: < 100 nM

COCCn1cc(Nc2nccc(-c3csc(-c4cccc([C@]5(O)CCN(C)C5=O)c4)n3)n2)cn1 [Example 265, (R)-3-Hydroxy-3-(3-(4-(2-((1-(2-methoxyethyl)-1H-pyrazol-4-yl)amino)pyrimidin-4-yl)thiazol-2-yl)phenyl)-1-methylpyrrolidin-2-one]
IC50 [1]: 100 to 500 nM
IC50 [2]: < 100 nM

COc1nn(C)cc1Nc1nccc(-c2csc(-c3cccc([C@]4(O)CCN(C)C4=O)c3)n2)n1 [Example 104, (R)-3-hydroxy-3-(3-(4-(2-((3-methoxy-1-methyl-1H-pyrazol-4-yl)amino)pyrimidin-4-yl)thiazol-2-yl)phenyl)-1-methylpyrrolidin-2-one]
IC50 [1]: < 100 nM
IC50 [2]: < 100 nM

CN1CC[C@@](O)(c2cccc(-c3csc(-c4ccnc(Nc5ccn(CC6CC6)n5)n4)n3)c2)C1=O [Example 289, (R)-3-(3-(2-(2-((1-(cyclopropylmethyl)-1H-pyrazol-3-yl)amino)pyrimidin-4-yl)thiazol-4-yl)phenyl)-3-hydroxy-1-methylpyrrolidin-2-one]
IC50 [1]: > 501 nM
IC50 [2]: > 501 nM

CN1CC[C@@](O)(c2cccc(-c3nc(-c4ccnc(Nc5cnn(C6CCOC6)c5)n4)cs3)c2)C1=O (single isomer, unassigned) [Example 18]
IC50 [1]: 100 to 500 nM
IC50 [2]: < 100 nM

CN1CC[C@@](O)(c2cccc(-c3nc(-c4ccnc(Nc5ccnn5C5COC5)n4)cs3)c2)C1=O [Example 160, (R)-3-Hydroxy-1-methyl-3-(3-(4-(2-((1-(oxetan-3-yl)-1H-pyrazol-5-yl)amino)pyrimidin-4-yl)thiazol-2-yl)phenyl)pyrrolidin-2-one]
IC50 [1]: > 501 nM
IC50 [2]: < 100 nM

Cc1ncccc1CNc1nccc(-c2csc(-c3cccc([C@]4(O)CCN(C)C4=O)c3)n2)n1 [Example 219]
IC50 [1]: > 501 nM
IC50 [2]: < 100 nM

CN1CC[C@@](O)(c2cccc(-c3nc(-c4ccnc(Nc5ccnn5CC5CC5)n4)cs3)c2)C1=O [Example 65, (R)-3-(3-(4-(2-((1-(cyclopropylmethyl)-1H-pyrazol-5-yl)amino)pyrimidin-4-yl)thiazol-2-yl)phenyl)-3-hydroxy-1-methylpyrrolidin-2-one]
IC50 [1]: > 501 nM
IC50 [2]: 100 to 500 nM

CN1CC[C@@](O)(c2cccc(-c3nc(-c4ccnc(Nc5cn(C)nc5OCC(F)F)n4)cs3)c2)C1=O [Example 96, (R)-3-(3-(4-(2-((3-(2,2-difluoroethoxy)-1-methyl-1H-pyrazol-4-yl)amino)pyrimidin-4-yl)thiazol-2-yl)phenyl)-3-hydroxy-1-methylpyrrolidin-2-one]
IC50 [1]: < 100 nM
IC50 [2]: < 100 nM

CN1CC[C@@](O)(c2cccc(-c3nc(-c4ccnc(NCCCO)n4)cs3)c2)C1=O [Example 174]
IC50 [1]: > 501 nM
IC50 [2]: < 100 nM

CN1CC[C@@](O)(c2cccc(-c3nc(-c4ccnc(NC[C@H]5CCOC5)n4)cs3)c2)C1=O [Example 192]
IC50 [1]: > 501 nM
IC50 [2]: 100 to 500 nM

Cc1cnc(CNc2nccc(-c3csc(-c4cccc([C@]5(O)CCN(C)C5=O)c4)n3)n2)nc1 [Example 208]
IC50 [1]: > 501 nM
IC50 [2]: > 501 nM
